Source: publication PMC6824041, “gem-Difluorobisarylic derivatives: design, synthesis and anti-inflammatory effect” (BMC Chemistry, 2019)

Molecular target: T1, cyclooxygenase-1 (COX-1) (Homo sapiens, UniProt P23219)
T1 construct: gene PTGS1; human recombinant COX-1 stably overexpressed in HEK-293 cells
Test: PGE2 production from added arachidonic acid in HEK-293 cells overexpressing human COX-1
Assay type: cell-based

T1 sequence (P23219 24-599): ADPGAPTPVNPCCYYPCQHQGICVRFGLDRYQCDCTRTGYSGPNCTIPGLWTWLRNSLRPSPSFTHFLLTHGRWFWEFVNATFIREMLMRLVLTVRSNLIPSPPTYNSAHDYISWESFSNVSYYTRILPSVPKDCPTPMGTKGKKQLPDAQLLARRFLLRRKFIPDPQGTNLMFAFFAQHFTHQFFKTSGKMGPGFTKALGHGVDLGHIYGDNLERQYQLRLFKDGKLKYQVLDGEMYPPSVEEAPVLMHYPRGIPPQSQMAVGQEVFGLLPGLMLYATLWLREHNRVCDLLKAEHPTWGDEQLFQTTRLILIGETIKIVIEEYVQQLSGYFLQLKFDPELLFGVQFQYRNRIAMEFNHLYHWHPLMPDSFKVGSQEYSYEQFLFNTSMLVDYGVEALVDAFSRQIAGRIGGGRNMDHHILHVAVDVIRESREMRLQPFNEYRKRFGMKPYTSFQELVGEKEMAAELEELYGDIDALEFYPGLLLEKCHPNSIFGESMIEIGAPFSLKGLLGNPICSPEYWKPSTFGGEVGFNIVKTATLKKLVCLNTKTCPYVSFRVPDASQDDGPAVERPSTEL

Cc1cc(C(=O)O)c(C(F)(F)c2cccc(C(C)C)c2)cc1C [A5, 2-(difluoro(3-isopropylphenyl)methyl)-4,5-dimethylbenzoic acid]
IC50: 5.2 µM
